Patent US10865203B2, “Ligands selective to alpha 6 subunit-containing GABAA receptors and their methods of use” (UWM Research Foundation, Inc., priority 2015, dated 2020)

Columns and labels:
[1] = Pharmacokinetic study in mice, plasma and brain; format: in vivo, mouse; conditions: nanoemulsion
Description: Five pharmacokinetic studies have been performed; four in male Wistar rats and one in male Swiss mice. […] At predetermined time intervals, i.e., 5, 20, 60, 180, and 720 min after dosing, the blood and brain samples of the rat were collected. […] At predetermined time intervals, i.e., 5, 20, 40, 120, and 360 min, the blood and brain samples of the mouse were collected.

mice, step-down latency = test: Sedation assessment; format: in vivo, mouse; conditions: 3 mg/kg i.p.
Description: The degree of sedation was measured by the latency for a mouse to completely step down from a slightly (3 cm) raised plastic platform (11×8 cm) by reference to a previous report (Horan et al. 1991). The mouse was placed on the platform 15 min after receiving i.p. Injection of the tested drug. The latency (in sec) for the mouse to step down the platform with all four paws was recorded. The baseline latency of each mouse before drug treatment was measured and, if longer than 15 sec, the mouse was discarded from the study. A cut-off time of 60 sec was taken as the maximal sedative effect. The percentage of sedation was calculated by the formula: sedation %=(test latency−baseline latency)/(60−baseline latency)×100%.

[2] = system: mice, methamphetamine-induced hyperlocomotion; test: Locomotor activity, methamphetamine-induced hyperlocomotion; format: in vivo, mouse
Description: The locomotor activity of the mouse was measured by its interruptions of infra-red photobeans in a locomotor cage (42 cm×42 cm×36 cm) in the photobeam activity system (San Diego Instruments, San Diego, Calif.). After acclimation, the mouse was treated with ci extract or vehicle for 15 min, followed by ma (2 mg/kg). Then, the mouse was gently placed in the locomotor cage and the horizontal and vertical interruptions were counted every 5 min for 60 min. Total locomotor activity was the sum of interruptions within 60 min.
Mice were anaesthetized with sodium pentobarbital (60 mg/kg i.p.) And placed in a stereotaxic frame keeping the bregma-lambda axis horizontal. After shaving the hair and exposing the skull surface, the mouse was implanted with two 24-gauge stainless-steel guide cannulas, respectively, directing towards the right and left lateral cerebella (−6.4 mm caudal, ±1.5 mm lateral, −1.0 mm ventral from bregma) according to the stereotaxic coordinate of the mouse (Paxions 2001). The cannulas were fixed on the top of the skull by stainless steel screws and dental cement. The animal was allowed to fully recover after surgery for at least one week before the behavioral test was conducted.
On the day for behavioral tests, a 30-gauge injection cannula connected to a 1 μL hamilton syringe was inserted into the guide cannula for drug injection. The drug solution of 0.5 μL in each side was slowly infused with a microinfusion pump (kds311, kd scientific inc.) For 30 s with a further “hold” time for 60 s. The microinjection site was confirmed by the positive staining of trypan blue, which was injected through the cannula after behavioral tests. Data from mice with offsite injections were discarded.

[3] = Half-life in liver microsomes (Example 4); format: in vitro ADME; conditions: rat and human liver microsomes, species of the value not stated
Description: Metabolic pathways that may disrupt the activity of compounds with aryl methoxy groups were investigated.

Compound | total concentrations in mouse brain ([1]; 10 mg/kg i.p.) | maximum concentration in mouse brain ([1]; 30 mg/kg i.p.) [µmol/L] | sedation (mice, step-down latency) | effect of intra-cerebellum furosemide on the rescue of hyperlocomotion ([2]; furosemide 10 nmol) | methamphetamine-induced hyperlocomotion ([2]; mice, 3 mg/kg i.p., METH 2 mg/kg i.p., 60 min) | spontaneous motor activity ([2]; mice, 3 mg/kg i.p., saline instead of METH) | half-life [3] [h]
[2H]C([2H])([2H])Oc1ccc(-n2nc3c4ccc(OC)cc4[nH]cc-3c2=O)cc1 [DK-I-56-1, 7-Methoxy-2-(4-methoxy-d3-phenyl)-2,5-dihydro-3H-pyrazolo[4,3-c]quinolin-3-one] | submicromolar | 7.5 | – | – | – | – | –
COc1ccc(-n2nc3c4ccc(OC)cc4[nH]cc-3c2=O)cc1 [Compound 6, 7-Methoxy-2-(4-methoxyphenyl)-2,5-dihydro-3H-pyrazolo[4,3-c]quinolin-3-one] | – | – | neither displayed any significant sedation | significantly antagonized | significantly rescued | did not affect | 2.92
